Laboratory results taken from US20190015397A1, “SUBSTANCE THAT INHIBITS P2Y12 RECEPTOR, FOR USE IN THE PREVENTIVE TREATMENT OF SYSTEMIC SCLEROSIS IN PATIENTS WITH RAYNAUD'S PHENOMENON AND A DYSIMMUNITY” (UNIVERSITÉ DE BORDEAUX, priority 2016, published 2019).
Entries after “also recorded” stand apart in the source; their conditions may differ. Values belong to the compound of their own block, whether it stands above or below them.

Key:
[1] = system: human dermal microvascular endothelial cells (HDMEC); assay: TSLP production by human dermal microvascular EC stimulated with cytokines/reagents (ELISA, RTqPCR); assay type: cell-based
Protocol: FIG. 4: IL1β-stimulated human dermal microvascular endothelial cells (HDMEC) produce TSLP. Normal HDMEC were purified from normal skin (plastic surgery) and stimulated 24 hrs with (A) cytokines potentially involved in SSc and the TLR4 agonist LPS or (B) increasing amount of IL1β (from 10 to 50 ng/ml) in complete MV-2 medium (M). Supernatants were harvested and TSLP content was measured by dedicated ELISA from eBioscience. Mean and SD from 3 (A) and 6 (B) independent experiments. (C) Quantification of TSLP mRNA from IL1β (50 ng/mL) activated HDMEC using RTqPCR, one representative experiment out of 3. *P<0.05 and ***P=0.0004 using Kruskal Wallis test.
(§1) (A) 70000 HDMEC were cultured for 24 hrs in 24-well culture plate in MV-2 complete medium along with increasing amount of purified non-activated platelets (white bars) or adenosine diphosphate-activated platelets (black bars) (from 10 to 200 platelets for 1 HDMEC). […] (B) HDMEC were stimulated with ADP-activated platelets with or without anti-IL1β blocking antibody. Condition “platelet-” is a comparison without platelets. […] (C) HDMEC were stimulated with increasing doses of serotonin (from 0 to 90 ng/ml). A Wilcoxon test was used. (*p=0.013). (D) HDMEC were stimulated with ADP-activated platelets (ratio HDMEC:platelets=1:200) with or without blocking anti-IL1β with or without 5HT-receptors (5HTR2a and 5HTR2b) blocking antibodies. […] Supernatants were harvested and TSLP content was measured using dedicated ELISA. Results are mean and SEM from 3 independent experiments.
(§2) TSLP levels in cell culture supernatants or serum was quantified using an ELISA kit from eBiosciences following the manufacturer's instruction.
(§3) Human dermal microvascular EC were cultured in complete MV2 growth medium in a 96 well-plates with flat bottom (20000 cells per well in 200 μl) and allowed to stand overnight before adding different reagents (IL-1β, IL-4, IL-13, TNF-α, IFN-γ, LPS, 5HT or Tryptase) or platelets ADP-activated or not for 24 h at 37° C. […]

human dermal fibroblasts = assay: Pro-fibrotic mRNA profile of activated human dermal fibroblasts (RT-qPCR); assay type: cell-based; details: for MMP-1 mRNA expression / collagen1A1 mRNA / collagen/collagenase ratio (COL1A1 on MMP-1 mRNA): HD dermal fibroblasts; for MMP-1 mRNA expression / collagen1A1 mRNA / collagen/collagenase ratio (COL1A1 on MMP-1 mRNA) / MCP-1 mRNA expression: 48 h; for MCP-1 mRNA expression: human dermal fibroblasts
Protocol: Human dermal fibroblasts were isolated from healthy skin and incubated 48 h with DMEM, IL1β, recombinant TSLP or TGFβ1. (A) Quantification of Col1A1 mRNA from activated fibroblasts using RT-qPCR from 3 different healthy donors was expressed in ΔΔCT with DMEM as the baseline condition. (B) Quantification of MMP-1 mRNA from activated fibroblasts using RTqPCR, results of 3 different healthy donors. (C) Ratio of COL1A1 on MMP-1 (collagenase) mRNA from activated normal fibroblasts using RT-qPCR, results of 3 different healthy donors (left panel) and 3 SSc patients (right panel). Among SSc patients, two patients were dcSSc and fibroblasts came from TSLP+ fibrotic skin (patients #1 and 2), the other was a IcSS and fibroblasts came from TSLP-low fibrotic skin (patient #3). (D) Quantification of MCP-1 from activated normal fibroblasts using RT-qPCR, results of 3 different donors. Kruskal Wallis test was used to compare the mean of mRNA expression levels. *P<0.05.
Fibroblasts were obtained from […] skin biopsy samples from 3 healthy donors as described elsewhere (Truchetet M E, Brembilla N C, Montanari E, et al. Interleukin-17A+ cell counts are increased in systemic sclerosis skin and their number is inversely correlated with the extent of skin involvement. Arthritis Rheum 2013; 65:1347-1356 ([24])).
Total RNA was isolated from trypsinized fibroblasts with the NucleoSpin RNA II extraction system (Macherey-Nagel, Duren, Germany) and cDNA synthesized from […] of total RNA using random hexamers and Superscript III reverse transcriptase (Invitrogen, Carlsbad, Calif.) according to manufacturer's instructions. Gene expression was quantified using SYBR green performed on a SDS 7900 HT instrument (Applied Biosystems). Specific primer pairs for each gene described in supplementary material (Datta A, Alexander R, Sulikowski M G, et al. Evidence for a functional thymic stromal lymphopoietin signaling axis in fibrotic lung disease. J Immunol 2013; 191:4867-4879 ([25]); Brembilla N C, Montanari E, Truchetet M E, et al. Th17 cells favor inflammatory responses while inhibiting type I collagen deposition by dermal fibroblasts: differential effects in healthy and systemic sclerosis fibroblasts. Arthritis Res Ther 2013; 15:R151 ([26]); Yoda A, Yoda Y, Chiaretti S, et al. Functional screening identifies CRLF2 in precursor B-cell acute lymphoblastic leukemia. Proc Natl Acad Sci USA 2010; 107:252-257 ([27]); Le Q T, Gomez G, Zhao W, et al. Processing of human protryptase in mast cells involves cathepsins L, B, and C. J Immunol 2011; 187:1912-1918 ([28])). Each reaction was performed in triplicates. […] Oligonucleotides were obtained from Sigma-Aldrich. Differences were calculated with the threshold cycle (Ct) and the comparative Ct method for relative quantification.

[2] = system: mice models of scleroderma; details: two mice models of scleroderma; cited from earlier work
patients with SSc = details: cited from earlier work
[3] = system: human normal microvascular endothelial cells; assay: TSLP secretion by endothelial cells co-incubated with platelets from patients treated by P2Y12 inhibitors; assay type: cell-based; details: clopidogrel 75 mg or ticagrelor 90 mg per day; platelets:EC 200:1, 24 hrs, ELISA
Protocol: FIG. 7: represents TSLP secretion (in pg/ml: A, or in %: B) by endothelial cells after stimulation by, from left to right, platelets from healthy donors (HD, n=6), patients treated by clopidogrel (n=3) or by ticagrelor (n=4). […] Supernatants were harvested and frozen before analysis. TSLP concentration was determined by ELISA.
Briefly, platelets purified from healthy normal subject, or non-sclerodermic patients treated with clopidogrel (75 mg par jour), or a non-sclerodermic patient treated with ticagrelor (90 mg par jour), for preventing atherothrombotic events, were co-incubated with human normal microvascular endothelial cells at a 200:1 ratio for 24 hrs. Cell culture supernatant was collected and TSLP content was measured using a dedicated commercial ELISA kit.

[4] = system: healthy endothelial cells; assay: TSLP production by healthy endothelial cells with platelets treated with acetylsalicylic acid; assay type: cell-based, human; details: doses 0, 10 and 1000 pg/ml
From the text: FIG. 8: represents the in vitro TSLP production (pg/ml) by healthy endothelial cells in the presence of platelets from a first healthy non sclerodermic patient a second non sclerodermic patient previously treated with acetylsalicylic acid (aspirin, pg/ml) at a dose of 0, 10 and 1000 pg/ml.
The endothelial TSLP production is not inhibited by healthy patients platelets treated with acetylsalicylic acid (aspirin active metabolite) (see FIG. 8).

[5] = system: human dermal microvascular endothelial cells (HDMEC); assay: Platelet-induced TSLP production in platelet/EC co-culture with blocking antibodies; assay type: cell-based; details: ADP-activated platelets
Protocol: as §1, §2, §3

P2Y12 receptor = P2Y12 receptor (Homo sapiens, UniProt Q9H244); details: cited from earlier work
Chain of P2Y12 receptor (Q9H244 whole entry): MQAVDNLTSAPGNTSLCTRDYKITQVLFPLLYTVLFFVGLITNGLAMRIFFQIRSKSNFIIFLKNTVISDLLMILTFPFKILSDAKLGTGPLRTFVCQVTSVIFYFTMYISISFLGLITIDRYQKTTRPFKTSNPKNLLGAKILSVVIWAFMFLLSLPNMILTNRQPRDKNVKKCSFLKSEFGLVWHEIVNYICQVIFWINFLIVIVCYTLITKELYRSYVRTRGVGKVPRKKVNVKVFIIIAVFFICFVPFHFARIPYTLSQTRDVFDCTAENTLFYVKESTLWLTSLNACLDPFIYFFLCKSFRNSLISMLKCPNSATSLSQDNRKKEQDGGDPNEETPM

Compound: IL1β: pro-inflammatory cytokine used as stimulus
- TSLP production by dermal microvascular EC (protein) ([1]; IL1β stimulation 24 hrs, vs 7.4±3.5 pg/ml with dermal microvascular EC alone): 651.7 ± 95.4 pg/mL
- TSLP expression at the transcriptomic level ([1]; RTqPCR, IL1β 50 ng/mL): increase the expression of TSLP
- MMP-1 mRNA expression (human dermal fibroblasts): 5.7±1.7 fold increase vs medium condition
- collagen1A1 mRNA (human dermal fibroblasts): 1.7±0.4 fold increase vs medium condition
- collagen/collagenase ratio (COL1A1 on MMP-1 mRNA) (human dermal fibroblasts): 0.47±0.3 fold increase vs medium condition
- MCP-1 mRNA expression (human dermal fibroblasts): 52.7±11.2 fold increase vs medium condition

Compound: COC(=O)[C@H](c1ccccc1Cl)N1CCc2sccc2C1 [clopidogrel]
- fibrosis [2]: reduces fibrosis
- markers of endothelial function and new digital ulcers (patients with SSc): may worsen markers of endothelial function and associate with development of new digital ulcers
- TSLP production by endothelial cells induced by platelets of treated patients [3]: failed to induce TSLP production; also recorded: can block the pro-fibrotic TSLP molecule expression
- dermal thickness (bleomycin-injected mice; clopidogrel 25 mg/kg/d per os from 15 days before bleomycin 30 μg/mice s.c.): reduces the dermal thickness
- skin fibrotic effect of Bleomycin (bleomycin-injected mice; clopidogrel pre-treatment 25 mg/kg/d per os): significantly reduces
- development of digital ulcers (bleomycin-injected mice; preventive treatment of mice before the establishment of fibrosis): not associated with development of digital ulcers

Compound: CCCSc1nc(N[C@@H]2C[C@H]2c2ccc(F)c(F)c2)c2nnn([C@@H]3C[C@H](OCCO)C(O)C3O)c2n1 (stereo partly drawn) [ticagrelor]
- TSLP production by endothelial cells induced by platelets of treated patients [3]: failed to induce TSLP production

- collagen/collagenase ratio in SSc fibroblasts (human dermal fibroblasts; fibroblasts from TSLP+ fibrotic skin of two dcSSc patients, compared to lcSSc patient or normal fibroblasts): lower collagen/collagenase ratio
Compound: rTSLP: recombinant Thymic Stromal Lymphopoietin
- MMP-1 mRNA expression (human dermal fibroblasts): 0.59±0.06 fold increase vs medium condition
- collagen1A1 mRNA (human dermal fibroblasts): 1.5±0.06 fold increase vs medium condition
- collagen/collagenase ratio (COL1A1 on MMP-1 mRNA) (human dermal fibroblasts): 2.6±0.3 fold increase vs medium condition
- MCP-1 mRNA expression (human dermal fibroblasts): 0.48±0.02 fold increase vs medium condition

Compound: NCCc1c[nH]c2ccc(O)cc12 [serotonin, reference compound]
- TSLP production by dermal microvascular EC ([1]; serotonin at 90 ng/ml, vs 0.75±0.5 pg/ml for EC alone): 58.9 ± 11.4 pg/mL

Compound: TGFβ: cytokine used as control condition on fibroblasts
- MMP-1 mRNA expression (human dermal fibroblasts): 0.56±0.14 fold increase vs medium condition
- collagen1A1 mRNA (human dermal fibroblasts): 5.35±0.9 fold increase vs medium condition
- MCP-1 mRNA expression (human dermal fibroblasts): 0.31±0.09 fold increase vs medium condition

Compound: CC(=O)Oc1ccccc1C(=O)O [acetylsalicylic acid]
- endothelial TSLP production with acetylsalicylic acid-treated platelets [4]: not inhibited
- endothelial TSLP production with acetylsalicylic acid-treated platelets ([4]; listed as aspirin): not observed

Compound: canakinumab: monoclonal antibody blocking IL-1β
- platelet-induced TSLP production ([5]; FIG. 5B, blocking antibody 10 μg/mL, vs 64.8±3.9 pg/ml without antibody): 20.9 ± 3.7 pg/mL
- TSLP production in platelet/EC co-culture ([5]; HDMEC:platelets=1:200, FIG. 5D, vs 649±13.8 pg/ml in platelet/EC): 335.1 ± 28.5 pg/mL

Compound: CCCSc1nc(N[C@@H]2C[C@H]2c2ccc(F)c(F)c2)c2nnn([C@@H]3C[C@H](O)[C@@H](O)[C@H]3O)c2n1 [AR-C124910XX]
- potency of active metabolite relative to ticagrelor (P2Y12 receptor): approximately equipotent
